Reference: ChEMBL document CHEMBL1132612, “Melatonergic properties of the (+)- and (-)-enantiomers of N-(4-methoxy-2,3-dihydro-1H-phenalen-2-yl)amide derivatives” (J Med Chem, 1999)

Key:
[1] = test system: Melatonin receptor (Xenopus laevis); assay: Percent maximum effect relative to melatonin (100%)
[2] = target: Melatonin receptor (Xenopus laevis); assay: Functional activity against melatonin receptor in lightening Xenopus laevis tadpole skin
Melatonin receptor = Melatonin receptor (Gallus gallus, UniProt P49288+P51050+P49285); assay: Inhibition of 2-[125I]- iodomelatonin from chicken brain melatonin receptors
[3] = target: Melatonin receptor (Xenopus laevis); assay: The functional activity on melatonin receptor was evaluated by its potency to lighten the skin of Xenopus laevis tadpoles

| Activity [1] | EC50 [2] | Ki (Melatonin receptor) | EC50 [3] | SMILES |
| --- | --- | --- | --- | --- |
| 0% | > 1000 nM | 36.5 nM |  | COc1ccc2cccc3c2c1CC(NC(C)=O)C3 (racemic) |
|  |  | 10 nM |  | CCCC(=O)N[C@@H]1Cc2cccc3ccc(OC)c(c23)C1 |
|  | > 1000 nM | 787 nM |  | O=C(NCCc1cccc2ccccc12)C1CCC1 |
| 100% | 0.037 nM |  |  | COc1ccc2ccc(OC)c(CCNC(C)=O)c2c1 |
| 0% | > 1000 nM | 28.7 nM |  | COc1ccc2cccc3c2c1C[C@H](NC(C)=O)C3 |
| 40% | > 1000 nM | 8.6 nM |  | CCC(=O)NC1Cc2cccc3ccc(OC)c(c23)C1 (racemic) |
| 40% |  | 1.7 nM | > 1000 nM | CCCC(=O)NC1Cc2cccc3ccc(OC)c(c23)C1 (racemic) |
| 0% | > 1000 nM | 38.3 nM |  | COc1ccc2cccc3c2c1C[C@@H](NC(C)=O)C3 |
|  |  | 3.2 nM |  | CCCC(=O)N[C@H]1Cc2cccc3ccc(OC)c(c23)C1 |
|  |  | 9 nM |  | CCC(=O)N[C@H]1Cc2cccc3ccc(OC)c(c23)C1 |
|  |  | 7.6 nM |  | CCC(=O)N[C@@H]1Cc2cccc3ccc(OC)c(c23)C1 |
